Laboratory results as given in ChEMBL document CHEMBL6078649, “Discovery of Chalcone Derivatives as Bifunctional Molecules with Anti-SARS-CoV-2 and Anti-inflammatory Activities” (J Nat Prod, 2024).

System: SARS-CoV-2
Test: Antiviral activity against SARS-CoV-2 infected in human Huh-7 cells harboring viral replicon/EGFP/Neo genes assessed as inhibition of EGFP expression incubated for 24 hrs
Assay type: functional, organism-based
Details: Severe acute respiratory syndrome coronavirus 2, Huh-7, 24 h

Question: How did the EC50 turn out when `O=C(/C=C/c1c(Cl)c(O)c(O)c(O)c1Cl)c1ccc(F)cc1` was run?
Answer: Its EC50 is 19.9 µM.

Question: `O=C(/C=C/c1cc(O)c(O)c(O)c1)c1ccc(F)cc1` was tested. Which EC50 did it give?
Answer: Its EC50 is 11.7 µM.

Question: For `O=C(CCc1cc(O)c(O)c(O)c1)c1ccc(F)cc1`, which EC50 is on record?
Answer: Its EC50 is 32.1 µM.

Question: With `CC(=O)Oc1c(Cl)c(/C=C/C(=O)c2ccc(F)cc2)c(Cl)c(OC(C)=O)c1OC(C)=O` as the molecule, how does the EC50 read?
Answer: Its EC50 is 40.3 µM.
